Several values for one entry are separate records, joined by “and”; a condition that tells them apart may be missing. Equal values may be shown once.
Target: T1, HIV-1 protease (Human immunodeficiency virus type 1 group M subtype B, UniProt P04585)
T1 construct: The HIV-1 protease is composed of 99 amino acids
Test: In vitro HIV-1 protease assay
Type: biochemical
Conditions: for IC50: purified HIV-1 protease 15 picomolar, peptide substrate 440 micromolar, pH 5.5, 30° C., 60 minutes, HPLC fluorescence detection; for biological activity compared with another named compound, in words: comparator named in the value; for fold higher biological activity than the corresponding SRR (C4) diastereomer: SRS compound vs its SRR diastereomer (4 vs 3, 6 vs 5, 17 vs 16, 13 vs 12, 19 vs 18, 23 vs 22, 21 vs 20)
Method: Compounds were evaluated for the ability to inhibit the enzymatic activity of HIV-1 protease in an in vitro assay. Protease activity was assessed in reactions catalyzed by purified HIV-1 protease at a concentration of 15 picomolar in buffer (50 mM sodium acetate, pH 5.5, 100 mM NaCl, 1 mg/mL bovine serum albumin) using a peptide substrate with sequence Val-Ser-Gln-Asn-(beta-naphthylalanine)-Pro-IIe-Val at a concentration of 440 micromolar in a final volume of 80 microliters. Compounds in DMSO stock were added to a final DMSO concentration of 2.5% and preincubated with enzyme prior to the initiation of the reaction by addition of substrate. Reactions were incubated at 30° C. for 60 minutes and were then quenched by the addition of 120 microliters 10% H3PO4. The amount of product formed was determined using high performance liquid chromatography with a Vydac C18 column and fluorescence detection of product. Percent inhibition was determined relative to control reactions without inhibitor, and half maximal inhibitory concentration (IC50) values were determined using a standard four parameter fit to the inhibition data. The IC50 is a quantitative measure of the effectiveness of a compound in inhibiting biological or biochemical function that indicates how much a particular compound or other substance is needed to inhibit a given biological process (or component of a process) by half.

`CC1Cc2ccccc2S(=O)(=O)N(C[C@@H](O)[C@H](Cc2ccccc2)NC(=O)OC(C)(C)C)C1` (mixture of isomers) [Compound 2] was tested, and the “fold greater activity than compound 1 (R=H)” value (mixture of two C4 diastereomers vs compound 1) was “ten-fold greater activity” and the IC50 was 240 nM and 220 nM.
With `CC(C)(C)OC(=O)N[C@@H](Cc1ccccc1)[C@H](O)CN1CC(c2ccccc2)Cc2ccccc2S1(=O)=O` (mixture of isomers) [Compound 7] the “biological activity compared with another named compound, in words” value was “biological activity higher than that of Compound 1” and the IC50 was 455 nM.
With `CC(C)(C)OC(=O)N[C@@H](Cc1ccccc1)[C@H](O)CN1CCCc2ccccc2S1(=O)=O` [Compound 1] the “biological activity compared with another named compound, in words” value was “much less active when compared to Compound 4” and the IC50 was 2800 nM and 3050 nM.
`C=CCOC(=O)N[C@@H](Cc1ccccc1)[C@H](O)CN1C[C@H](C)Cc2ccccc2S1(=O)=O` [Compound 3] gave an IC50 of 5960 nM.
For `C=CCOC(=O)N[C@@H](Cc1ccccc1)[C@H](O)CN1C[C@@H](C)Cc2ccccc2S1(=O)=O` [Compound 4], the “fold higher biological activity than the corresponding SRR (C4) diastereomer” value was “approximately 40 fold” and the IC50 was 157 nM.
With `CCOC(=O)N[C@@H](Cc1ccccc1)[C@H](O)CN1C[C@H](C)Cc2ccccc2S1(=O)=O` [Compound 5] the IC50 was 10800 nM.
For `CCOC(=O)N[C@@H](Cc1ccccc1)[C@H](O)CN1C[C@@H](C)Cc2ccccc2S1(=O)=O` [Compound 6], the “fold higher biological activity than the corresponding SRR (C4) diastereomer” value was “approximately 54 fold” and the IC50 was 199 nM.
With `C=CCOC(=O)N[C@@H](Cc1ccccc1)[C@H](O)CN1C[C@H](c2ccccc2)Cc2ccccc2S1(=O)=O` [Compound 8] the “biological activity compared with another named compound, in words” value was “lower biological activity than that of Compound 9” and the IC50 was 3260 nM.
With `C=CCOC(=O)N[C@@H](Cc1ccccc1)[C@H](O)CN1C[C@@H](c2ccccc2)Cc2ccccc2S1(=O)=O` [Compound 9] the “biological activity compared with another named compound, in words” value was “higher biological activity than that of Compound 3” and the IC50 was 470 nM.
Work on `CCOC(=O)N[C@@H](Cc1ccccc1)[C@H](O)CN1C[C@H](c2ccccc2)Cc2ccccc2S1(=O)=O` [Compound 10] yielded an IC50 of 2440 nM.
For `CCOC(=O)N[C@@H](Cc1ccccc1)[C@H](O)CN1C[C@@H](c2ccccc2)Cc2ccccc2S1(=O)=O` [Compound 11], the “biological activity compared with another named compound, in words” value was “higher biological activity than that of Compound 10” and the IC50 was 864 nM.
Work on `C[C@@H]1Cc2cc(F)ccc2S(=O)(=O)N(C[C@@H](O)[C@H](Cc2ccccc2)NC(=O)OC(C)(C)C)C1` [Compound 12] yielded an IC50 of 15700 nM.
`C[C@H]1Cc2cc(F)ccc2S(=O)(=O)N(C[C@@H](O)[C@H](Cc2ccccc2)NC(=O)OC(C)(C)C)C1` [Compound 13] was tested, and the “fold higher biological activity than the corresponding SRR (C4) diastereomer” value was ~132 fold, the “biological activity compared with another named compound, in words” value was “higher biological activity than Compound 15” and the IC50 was 119 nM.
`C[C@@H]1Cc2ccccc2S(=O)(=O)N(C[C@@H](O)[C@H](Cc2ccccc2)NC(=O)OC(C)(C)C)C1` [Compound 14] was tested, and the IC50 was 5470 nM.
In the case of `C[C@H]1Cc2ccccc2S(=O)(=O)N(C[C@@H](O)[C@H](Cc2ccccc2)NC(=O)OC(C)(C)C)C1` [Compound 15], the “biological activity compared with another named compound, in words” value was “higher biological activity than that of Compound 14” and the IC50 was 169 nM.
`C[C@H]1Cc2ccccc2S(=O)(=O)N(C[C@@H](O)[C@H](Cc2ccccc2)NC(=O)Oc2ccccc2)C1` [Compound 17] was tested, and the “fold higher biological activity than the corresponding SRR (C4) diastereomer” value was “approximately 10 fold”, the “biological activity compared with another named compound, in words” value was “higher activity than Compound 16” and the IC50 was 2060 nM.
`C[C@H]1Cc2cc(C(F)(F)F)ccc2S(=O)(=O)N(C[C@@H](O)[C@H](Cc2ccccc2)NC(=O)OC(C)(C)C)C1` [Compound 19] was tested, and the “biological activity (HIV-1 protease inhibition) in words” value was “not very active”, the “fold higher biological activity than the corresponding SRR (C4) diastereomer” value was ~18 fold and the IC50 was 1120 nM.
`C[C@@H]1Cc2ccc(C(F)(F)F)cc2S(=O)(=O)N(C[C@@H](O)[C@H](Cc2ccccc2)NC(=O)OC(C)(C)C)C1` [Compound 20] was tested, and the IC50 was 8300 nM.
For `C[C@H]1Cc2ccc(C(F)(F)F)cc2S(=O)(=O)N(C[C@@H](O)[C@H](Cc2ccccc2)NC(=O)OC(C)(C)C)C1` [Compound 21], the “fold higher biological activity than the corresponding SRR (C4) diastereomer” value was ~14 fold and the IC50 was 612 nM.
`COc1ccc2c(c1)C[C@@H](C)CN(C[C@@H](O)[C@H](Cc1ccccc1)NC(=O)OC(C)(C)C)S2(=O)=O` [Compound 22] was tested, and the “biological activity (HIV-1 protease inhibition) in words” value was “not active” and the IC50 was 6100 nM.
In the case of `COc1ccc2c(c1)C[C@H](C)CN(C[C@@H](O)[C@H](Cc1ccccc1)NC(=O)OC(C)(C)C)S2(=O)=O` [Compound 23], the “biological activity (HIV-1 protease inhibition) in words” value was “excellent activity”, the “fold higher biological activity than the corresponding SRR (C4) diastereomer” value was ~57 fold and the IC50 was 107 nM.
In the case of `C[C@H]1Cc2cc(F)ccc2S(=O)(=O)N(C[C@@H](O)[C@H](Cc2ccccc2)NC(=O)C2CN(c3ccccc3)C(=O)O2)C1` (stereo partly drawn) [Compound 24], the “biological activity (HIV-1 protease inhibition) in words” value was “highly active” and the IC50 was 176 nM.

Reference: patent US8283346B2, “Human immunodeficiency virus protease inhibitors” (The Trustees of the Stevens Institute of Technology, priority 2009, dated 2012)
